Laboratory results from publication PMC11249646, “Small-Molecule Disruptors of the Interaction between Calcium- and Integrin-Binding Protein 1 and Integrin αIIbβ3 as Novel Antiplatelet Agents” (ACS Pharmacology & Translational Science, 2024).
Where two headings read alike, the source gives them in different places.

Tests used:
Format in all cases: binding
[1] = molecular target: T1, CIB1 and αIIb interaction (GST-CIB1 : F-αIIb peptide) (Homo sapiens, UniProt Q99828); experiment: FP assay, 384-well format (screen); set-up: 384-well SCREEN Efficacy (%): concentration or dose not given beside the values; conditions: F-αIIb peptide; for IC50: read-out: 384-well SCREEN IC50; for 384-well SCREEN Confirm?: YES/NO
T1 construct: made in house; host or cells: BL-21 plus RIL cells (E. coli)
T1 sequence (Q99828 1-191): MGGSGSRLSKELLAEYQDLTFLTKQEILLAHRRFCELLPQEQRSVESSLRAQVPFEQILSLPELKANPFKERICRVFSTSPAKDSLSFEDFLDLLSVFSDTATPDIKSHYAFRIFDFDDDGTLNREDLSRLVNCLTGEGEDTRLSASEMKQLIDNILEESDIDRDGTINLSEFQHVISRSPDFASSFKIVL

[2] = molecular target: T2, GST-CIB1 : F-scrambled peptide (Homo sapiens, UniProt Q99828); experiment: FP scrambled-peptide counter screen, 384-well format; conditions: F-scrambled peptide; for IC50: read-out: 384-well COUNTERSCREEN IC50; for 384-well COUNTERSCREEN Confirm?: *: Curve in opposite direction
T2 construct: made in house; host or cells: BL-21 plus RIL cells (E. coli)
T2 sequence (Q99828 1-191): T1 sequence (Q99828 1-191)

[3] = molecular target: T3, CIB1 and αIIb interaction (CIB1-GST : F-αIIb peptide) (Homo sapiens, UniProt Q99828); experiment: FP assay, 1536-well qHTS format (primary and confirmatory screen); conditions: for CONFIRMATORY SCREEN Confirm?: YES/NO call; for CONFIRMATORY SCREEN Curve Class: qHTS curve class; for CONFIRMATORY SCREEN Curve Class / Curve Class: negative sign = inhibitory curve; for CONFIRMATORY SCREEN Efficacy (%) / Efficacy (%): negative = inhibition
T3 construct: made in house; host or cells: BL-21 plus RIL cells (E. coli)
T3 sequence (Q99828 1-191): T1 sequence (Q99828 1-191)

[4] = molecular target: T2, GST-CIB1 : F-scrambled peptide; experiment: FP scrambled-peptide counter screen, 1536-well format; conditions: scrambled-peptide counterscreen; for COUNTERSCREEN Confirm?: YES/NO call; for COUNTERSCREEN Curve Class: qHTS curve class; for IC50: read-out: COUNTERSCREEN IC50
[5] = confirmatory screen, read-out: CONFIRMATORY SCREEN IC50
[6] = qHTS primary screen hits, Table S2
[7] = qHTS primary screen hits, Table S2, several classes where COUNT > 1
[8] = qHTS primary screen hits, Table S2, read-out: IC50
[9] = qHTS FP screen hits, Table S2, read-out: IC50

Cc1ccc(S(=O)(=O)Nc2cnccc2C(=O)Nc2nc(-c3ccc(Cl)cc3)cs2)cc1.O=C(O)C(F)(F)F [NCGC00318981-01]
384-well SCREEN Efficacy (%) [1]: 45% | IC50 [1]: > 120 µM | 384-well COUNTERSCREEN Efficacy (%) [2]: 60% | IC50 [2]: 28.2 µM | CONFIRMATORY SCREEN Confirm? ([3]; confirmatory screen): YES | CONFIRMATORY SCREEN Curve Class ([3]; confirmatory screen): -1.2 | CONFIRMATORY SCREEN Efficacy (%) ([3]; confirmatory screen): -69% | IC50 [3, 5]: 28.2 µM | Efficacy (%) [3, 6]: -35% | Curve Class [3, 7]: -1.2 | IC50 [3, 8]: 31.6 µM | COUNTERSCREEN Efficacy (%) [4]: 53% | COUNTERSCREEN Confirm? [4]: YES | COUNTERSCREEN Curve Class [4]: 3 | IC50 [4]: 89.1 µM

CCC(=O)NC(c1cccs1)c1cc([N+](=O)[O-])c2cccnc2c1O (stereo not drawn) [NCGC00182956-10]
384-well SCREEN Efficacy (%) [1]: 23% | IC50 [1]: > 120 µM | 384-well COUNTERSCREEN Efficacy (%) [2]: 47% | IC50 [2]: 17.7 µM | CONFIRMATORY SCREEN Confirm? ([3]; confirmatory screen): YES | CONFIRMATORY SCREEN Curve Class ([3]; confirmatory screen): -3 | CONFIRMATORY SCREEN Efficacy (%) ([3]; confirmatory screen): -53% | IC50 [3, 5]: 50.1 µM | Efficacy (%) ([3]; qHTS FP screen hits, Table S2): -51% | IC50 [3, 9]: 46.6 µM | COUNTERSCREEN Efficacy (%) [4]: -17% | COUNTERSCREEN Confirm? [4]: YES | COUNTERSCREEN Curve Class [4]: 4

O=C(Cc1ccc(Cl)c(Cl)c1)Nc1ccc(S(=O)(=O)Nc2ccon2)cc1.O=C(O)C(F)(F)F [NCGC00244858-03]
384-well SCREEN Efficacy (%) [1]: 35% | 384-well SCREEN Confirm? [1]: YES | IC50 [1]: 8.9 µM | 384-well COUNTERSCREEN Efficacy (%) [2]: 43% | IC50 [2]: 25.1 µM | CONFIRMATORY SCREEN Confirm? ([3]; confirmatory screen): YES | CONFIRMATORY SCREEN Curve Class ([3]; confirmatory screen): -1.4 | CONFIRMATORY SCREEN Efficacy (%) ([3]; confirmatory screen): -39% | IC50 [3, 5]: 22.4 µM | Efficacy (%) [3, 6]: -27% | Curve Class [3, 6]: -1.4 | IC50 [3, 8]: 3.2 µM | COUNTERSCREEN Efficacy (%) [4]: -10% | COUNTERSCREEN Confirm? [4]: YES | COUNTERSCREEN Curve Class [4]: 4

Cc1cc(NS(=O)(=O)c2ccc(NCCc3ccc(Cl)c(Cl)c3)cc2)no1.O=C(O)C(F)(F)F [NCGC00244100-02]
384-well SCREEN Efficacy (%) [1]: 42% | 384-well SCREEN Confirm? [1]: YES | IC50 [1]: 22.4 µM | 384-well COUNTERSCREEN Efficacy (%) [2]: 23% | 384-well COUNTERSCREEN Confirm? [2]: YES | IC50 [2]: > 120 µM | CONFIRMATORY SCREEN Confirm? ([3]; confirmatory screen): YES | CONFIRMATORY SCREEN Curve Class ([3]; confirmatory screen): -2.4 | CONFIRMATORY SCREEN Efficacy (%) ([3]; confirmatory screen): -36% | Efficacy (%) ([3]; qHTS FP screen hits, Table S2): -22% | IC50 [3, 9]: 22.4 µM | COUNTERSCREEN Efficacy (%) [4]: 132% | COUNTERSCREEN Confirm? [4]: YES | COUNTERSCREEN Curve Class [4]: 3 | IC50 [4]: 39.8 µM

Cc1csc(CNc2ncnc3ccc(-c4ccc(CO)o4)cc23)n1.O=C(O)C(F)(F)F [NCGC00229623-01]
384-well SCREEN Efficacy (%) [1]: 70% | 384-well SCREEN Confirm? [1]: YES | IC50 [1]: 35.5 µM | 384-well COUNTERSCREEN Efficacy (%) [2]: 39% | IC50 [2]: 25.1 µM | CONFIRMATORY SCREEN Confirm? ([3]; confirmatory screen): YES | CONFIRMATORY SCREEN Curve Class ([3]; confirmatory screen): -3 | CONFIRMATORY SCREEN Efficacy (%) ([3]; confirmatory screen): -83% | Efficacy (%) [3, 6]: -60% | Curve Class [3, 6]: -2.2 | COUNTERSCREEN Efficacy (%) [4]: -25% | COUNTERSCREEN Confirm? [4]: YES | COUNTERSCREEN Curve Class [4]: 4

O=C(Cc1ccc(Cl)c(Cl)c1)Nc1ccc(S(=O)(=O)Nc2nnc(-c3ccccn3)s2)cc1.O=C(O)C(F)(F)F [NCGC00248355-01]
384-well SCREEN Efficacy (%) [1]: 44% | 384-well SCREEN Confirm? [1]: YES | IC50 [1]: 11.2 µM | 384-well COUNTERSCREEN Efficacy (%) [2]: 38% | 384-well COUNTERSCREEN Confirm? [2]: YES | IC50 [2]: > 120 µM | CONFIRMATORY SCREEN Confirm? ([3]; confirmatory screen): YES | CONFIRMATORY SCREEN Curve Class ([3]; confirmatory screen): -2.1 | CONFIRMATORY SCREEN Efficacy (%) ([3]; confirmatory screen): -132% | IC50 [3, 5]: 35.5 µM | Efficacy (%) [3, 6]: -50% | Curve Class [3, 7]: -1.2 | IC50 [3, 8]: 25.1 µM | COUNTERSCREEN Efficacy (%) [4]: -73% | COUNTERSCREEN Confirm? [4]: YES | COUNTERSCREEN Curve Class [4]: -2.4 | IC50 [4]: 79.4 µM

COc1cc(/C=C2/N=C(c3ccccc3)OC2=O)c(F)cc1OCc1ccccc1 [NCGC00168015-01]
384-well SCREEN Efficacy (%) [1]: 22% | IC50 [1]: > 120 µM | 384-well COUNTERSCREEN Efficacy (%) [2]: 32% | IC50 [2]: > 120 µM | CONFIRMATORY SCREEN Confirm? ([3]; confirmatory screen): YES | CONFIRMATORY SCREEN Curve Class ([3]; confirmatory screen): -2.2 | CONFIRMATORY SCREEN Efficacy (%) ([3]; confirmatory screen): -79% | IC50 [3, 5]: 44.7 µM | Efficacy (%) [3, 6]: -91% | Curve Class [3, 7]: -2.1 | IC50 [3, 8]: 50.1 µM | COUNTERSCREEN Efficacy (%) [4]: -24% | COUNTERSCREEN Confirm? [4]: YES | COUNTERSCREEN Curve Class [4]: 4
